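How tested: cells in 96-well plates exposed to compound for 48 hours at five concentrations. TGI is the concentration that stops growth completely.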
Tests used:
Experiment in all cases: NCI tumour cell line growth inhibition, 48 h
[1] = test system: 786-0 renal
[2] = test system: HOP-18 NSCLC
[3] = test system: DMS 273 small cell lung
[4] = test system: SNB-78 CNS
[5] = test system: M19-MEL melanoma
[6] = test system: P388 leukemia
[7] = test system: SN12K1 renal
[8] = test system: LXFL 529 NSCLC
[9] = test system: DMS 114 small cell lung
[10] = test system: RXF-631 renal

Question: Which TGI [1] does the source give for `CS(=O)(=O)c1ccc(/C=N/NC(N)=S)cc1` here?
Answer: > 100 µM

Question: Which TGI [2] does the source give for `CC1(C)CC23C4COC(=O)C2CCC1C3CC4=O` (centres undefined) here?
Answer: 5.11 µM

Question: And the TGI [3]?
Answer: 71 µM

Question: What about the TGI [4] of the same compound?
Answer: 73.4 µM

Question: What about the TGI [5] of the same compound?
Answer: 40.7 µM

Question: What about the TGI [6] of the same compound?
Answer: 111 µM

Question: What about the TGI [7] of the same compound?
Answer: 48.2 µM

Question: `CC[C@]1(O)C[C@H]2CN(CCc3c([nH]c4ccccc34)[C@@](C(=O)OC)(c3cc4c(cc3OC)N(C=O)[C@H]3[C@@](O)(C(=O)OC)[C@H](OC(C)=O)[C@]5(CC)C=CCN6CC[C@]43[C@@H]65)C2)C1` was tested. Which TGI [2] did it give?
Answer: 87.3 µM

Question: What about the TGI [3] of the same compound?
Answer: 3.13 µM

Question: What about the TGI [8] of the same compound?
Answer: 7.81 µM

Question: What about the TGI [4] of the same compound?
Answer: 109 µM

Question: And the TGI [5]?
Answer: 169 µM

Question: What about the TGI [6] of the same compound?
Answer: 7.83 µM

Question: What about the TGI [9] of the same compound?
Answer: 0.56 µM

Question: What about the TGI [7] of the same compound?
Answer: 0.134 µM

Question: For `C/C=C/[C@H]1O[C@@](O)([C@@H](C)[C@H](O)[C@H](C)[C@H]2OC(=O)/C(OC)=C/C(C)=C/[C@@H](C)[C@@H](O)[C@@H](CC)[C@@H](O)[C@H](C)C/C(C)=C/C=C/[C@@H]2OC)C[C@H](OC2CC(O)C(O)C(C)O2)[C@@H]1C` (some centres undefined), which TGI [1] is on record?
Answer: 2.92 µM

Question: How did the TGI [1] turn out when `O=C(O)c1ccccc1NC(c1ccccc1)c1ccc2cccnc2c1O` (centres undefined) was run?
Answer: 20.1 µM

Question: With `N/C(=N\N=C/c1ccccc1O)NO` as the compound, how does the TGI [2] read?
Answer: > 100 µM

Question: What about the TGI [3] of the same compound?
Answer: 28.7 µM

Question: And the TGI [4]?
Answer: > 96.6 µM

Question: And the TGI [5]?
Answer: > 100 µM

Question: What about the TGI [6] of the same compound?
Answer: 18.7 µM

Question: What about the TGI [9] of the same compound?
Answer: 30.7 µM

Question: And the TGI [7]?
Answer: > 100 µM

Question: With `O=C(O)c1cc2ccccc2c(N=Nc2ccccc2)c1O` as the compound, how does the TGI [1] read?
Answer: > 100 µM

Question: `O=[N+]([O-])c1nc(-c2ccccn2)[nH]c1[N+](=O)[O-]` was tested. Which TGI [3] did it give?
Answer: > 100 µM

Question: What about the TGI [8] of the same compound?
Answer: > 100 µM

Question: What about the TGI [4] of the same compound?
Answer: > 100 µM

Question: What about the TGI [5] of the same compound?
Answer: > 100 µM

Question: What about the TGI [9] of the same compound?
Answer: 38.9 µM

Question: What about the TGI [10] of the same compound?
Answer: > 100 µM

Question: How did the TGI [1] turn out when `C/C(CC/C(C)=N/O)=N\O` was run?
Answer: > 100 µM

Question: What does the source list for `COC1=C2CC(C)CC(OC)C(O)C(C)/C=C(\C)C(OC(N)=O)C(OC)/C=C\C=C(/C)C(=O)NC(=C(C=NC(C)(C)C)C1=O)C2=O` (centres undefined)?
Answer: TGI [2]: 33.7 µM; TGI [3]: 11.9 µM; TGI [4]: 46.2 µM; TGI [5]: 15.6 µM; TGI [6]: 8.79 µM; TGI [9]: 3.82 µM; TGI [7]: 31.2 µM
